Test results as given in patent US20120220594A1, “METHODS FOR TREATING CANCER IN PATIENTS HAVING IGF-1R INHIBITOR RESISTANCE” (Bristol-Meyers Squibb Company, priority 2009, published 2012).
Read-outs that look alike come from different tables or passages of the source.

What was measured:
[1] = test system: Rh41-807R cells; experiment: 3H-thymidine incorporation cell proliferation assay in BMS-754807-resistant Rh41-807R cells; format: cell-based, human
Description: (§1) Human rhabdomyosarcoma cell line Rh41 was provided by Dr. Lee Helman and grown in RPMI medium plus GLUTAMAX® supplemented with 10% fetal bovine serum (FBS), 10 mmol/L HEPES, penicillin, and streptomycin.

[2] = test system: Rh41 cells; experiment: 3H-thymidine incorporation cell proliferation assay in parental Rh41 cells; format: cell-based, human
Description: as §1

[3] = test system: Rh41-MAB391R cells; experiment: 3H-thymidine incorporation cell proliferation assay in MAB391-resistant Rh41-MAB391R cells; format: cell-based, human; conditions: Rh41-MAB391R cells, 72 h, 3H-thymidine incorporation; Table 1; read-out: IC50 (nM) Rh41-MAB391R
Description: Human rhabdomyosarcoma cell line Rh41 was provided by Dr. Lee Helman and grown in RPMI medium plus GLUTAMAX® supplemented with 10% fetal bovine serum (FBS), 10 mmol/L HEPES, penicillin, and streptomycin. To develop acquired resistant cells to either BMS-754807, or mAB391 (R&D Systems, Inc., Minneapolis, Minn.), the sensitive Rh41 cells were exposed to the corresponding drug at the IC50 concentration and then at gradually increasing concentrations every other culture passage. The IC50 value to the compound was measured periodically during this treatment time until the resistance level reached a plateau.
Human rhabdomyosarcoma cell line Rh41 was chosen in this study to develop acquired resistance because it expresses IGF-1R (Huang et al., Cancer Res., 69(1):161-170 (Jan. 1, 2009)), the target of BMS-754807 and MAB391; and is sensitive to both drugs (Carboni et al., Proceedings of the 100th Annual Meeting of the American Association for Cancer Research, 2009 Apr. 18-22; Denver, Colo., Abstract No. 1742). The acquired-resistant Rh41-807R and Rh41-MAB391R cell lines were developed using a stepwise exposure to increasing concentrations of either IGF-1R/IR inhibitor BMS-754807 or IGF-1R antibody MAB391 for extended periods of time until a resistance plateau was reach. […];

[4] = target: type I-IGF receptor (IGF-1R), as expressed by human rhabdomyosarcoma Rh41 cells and the derived resistant lines (human) (UniProt P08069); experiment: cell-based or functional assay
[5] = Homo sapiens, Rh41-807R cells, cytotoxic agents and mTOR inhibitor, Table 2, read-out: Rh41-807R IC50
[6] = cytotoxic agents and mTOR inhibitor
[7] = Homo sapiens, Rh41 cells, cytotoxic agents and mTOR inhibitor, Table 2, read-out: Rh41 IC50
[8] = Homo sapiens, Rh41-807R cells, PDGFR inhibitors, Table 7, read-out: Rh41-807R IC50
[9] = Homo sapiens, Rh41 cells, PDGFR inhibitors, Table 7, read-out: Rh41 IC50

Chain of type I-IGF receptor (IGF-1R), as expressed by human rhabdomyosarcoma Rh41 cells and the derived resistant lines (human) (P08069 31-1367, change not shown): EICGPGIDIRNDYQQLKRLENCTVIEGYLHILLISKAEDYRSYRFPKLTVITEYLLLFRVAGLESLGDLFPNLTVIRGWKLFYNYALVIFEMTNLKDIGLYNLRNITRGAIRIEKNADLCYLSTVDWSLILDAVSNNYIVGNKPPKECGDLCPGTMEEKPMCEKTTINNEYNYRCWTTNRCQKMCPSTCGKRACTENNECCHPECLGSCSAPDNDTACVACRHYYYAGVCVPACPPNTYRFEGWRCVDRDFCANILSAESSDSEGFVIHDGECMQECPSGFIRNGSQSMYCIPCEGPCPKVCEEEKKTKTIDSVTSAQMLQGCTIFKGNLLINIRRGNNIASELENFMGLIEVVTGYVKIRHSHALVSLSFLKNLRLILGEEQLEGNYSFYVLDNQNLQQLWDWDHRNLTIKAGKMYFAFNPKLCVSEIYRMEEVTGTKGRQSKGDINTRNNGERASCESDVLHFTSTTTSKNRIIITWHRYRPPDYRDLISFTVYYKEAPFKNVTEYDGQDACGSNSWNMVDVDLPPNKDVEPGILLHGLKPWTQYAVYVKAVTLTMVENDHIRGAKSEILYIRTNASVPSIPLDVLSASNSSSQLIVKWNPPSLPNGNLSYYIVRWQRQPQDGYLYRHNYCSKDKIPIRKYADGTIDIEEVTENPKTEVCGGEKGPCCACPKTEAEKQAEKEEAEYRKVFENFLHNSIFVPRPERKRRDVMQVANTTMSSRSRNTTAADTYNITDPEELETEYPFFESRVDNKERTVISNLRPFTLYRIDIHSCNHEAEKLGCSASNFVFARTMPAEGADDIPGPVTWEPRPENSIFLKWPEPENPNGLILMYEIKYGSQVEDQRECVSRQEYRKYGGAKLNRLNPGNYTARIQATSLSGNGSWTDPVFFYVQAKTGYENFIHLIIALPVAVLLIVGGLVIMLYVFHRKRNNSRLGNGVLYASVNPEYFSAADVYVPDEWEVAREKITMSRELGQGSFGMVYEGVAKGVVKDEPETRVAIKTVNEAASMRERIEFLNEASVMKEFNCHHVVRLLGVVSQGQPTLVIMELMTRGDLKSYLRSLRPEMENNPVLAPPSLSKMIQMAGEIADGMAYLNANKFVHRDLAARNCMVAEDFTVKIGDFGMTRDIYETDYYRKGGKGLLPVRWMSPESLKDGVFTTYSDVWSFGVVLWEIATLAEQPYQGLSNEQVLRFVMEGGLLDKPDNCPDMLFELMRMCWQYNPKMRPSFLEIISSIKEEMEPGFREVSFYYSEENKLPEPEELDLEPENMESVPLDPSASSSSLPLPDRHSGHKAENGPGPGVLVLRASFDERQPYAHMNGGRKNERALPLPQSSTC

Q: For `CC[C@]12C=CCN3CC[C@@]4(c5cc([C@@]6(C(=O)OC)C[C@@H]7C[C@@H](C(C)(F)F)CN(Cc8c6[nH]c6ccccc86)C7)c(OC)cc5N(C)[C@H]4[C@@](O)(C(=O)OC)[C@@H]1OC(C)=O)[C@@H]32` [Vinflunine], which IC50 ([1]; Homo sapiens, read-out: Rh41-807R IC50 (nM)) is on record?
A: 21 ± 3 nM

Q: What about the IC50 ([2]; Homo sapiens, Rh41, read-out: Rh41 IC50 (nM)) of the same compound?
A: 28 ± 2.8 nM

Q: With `Nc1ccn([C@@H]2O[C@H](CO)[C@@H](O)C2(F)F)c(=O)n1` [Gemcitabine] as the compound, how does the IC50 [1, 5] read?
A: 3 nM

Q: What about the “sensitivity of Rh41-807R compared with the parental line” value [1, 6] of the same compound?
A: very similar level of sensitivity as the parental line

Q: And the IC50 [2, 7]?
A: 1.1 ± 0.4 nM

Q: With `CNC(=O)c1cc(Oc2ccc(NC(=O)Nc3ccc(Cl)c(C(F)(F)F)c3)cc2)ccn1` [Sorafenib] as the compound, how does the IC50 [1, 8] read?
A: 804 ± 210 nM

Q: And the IC50 [2, 9]?
A: > 2000 nM

Q: Which IC50 [1, 5] does the source give for `CC(=O)O[C@H]1C(=O)[C@@]2(C)[C@H]([C@H](OC(=O)c3ccccc3)[C@]3(O)C[C@H](OC(=O)[C@H](O)[C@@H](NC(=O)c4ccccc4)c4ccccc4)C(C)=C1C3(C)C)[C@]1(OC(C)=O)CO[C@@H]1C[C@@H]2O` [TAXOL ®, paclitaxel] here?
A: 1.8 ± 0.3 nM

Q: What about the “sensitivity of Rh41-807R compared with the parental line” value [1, 6] of the same compound?
A: very similar level of sensitivity as the parental line

Q: What about the IC50 [2, 7] of the same compound?
A: 2.1 ± 0.4 nM

Q: With `CC(=O)O[C@@]12CO[C@@H]1C[C@H](O)[C@@]1(C)C(=O)[C@H](O)C3=C(C)[C@@H](OC(=O)[C@H](O)[C@@H](NC(=O)OC(C)(C)C)c4ccccc4)C[C@@](O)([C@@H](OC(=O)c4ccccc4)[C@H]21)C3(C)C` [Taxotere] as the compound, how does the IC50 [1, 5] read?
A: 0.5 nM

Q: What about the IC50 [2, 7] of the same compound?
A: 0.5 nM

Q: Which IC50 [1, 8] does the source give for `CN1CCN(c2ccc3nc(-c4c(N)c5c(F)cccc5[nH]c4=O)[nH]c3c2)CC1` [Dovitinib] here?
A: 722 ± 264 nM

Q: And the IC50 [2, 9]?
A: 6456 ± 60 nM

Q: Which results are given for `C/C(=C\c1csc(C)n1)[C@@H]1C[C@@H]2O[C@]2(C)CCC[C@H](C)[C@H](O)[C@@H](C)C(=O)C(C)(C)[C@@H](O)CC(=O)N1` [Ixabepilone]?
A: IC50 [1, 5]: 3.4 ± 0.4 nM; IC50 [2, 7]: 4 nM

Q: What does the source list for `Cc1cc(N2CCOCC2)cc2[nH]c(-c3c(NC[C@@H](O)c4cccc(Cl)c4)cc[nH]c3=O)nc12` [BMS-536924]?
A: IC50 ([1]; Rh41-807R cells, 72 h, 3H-thymidine incorporation, Table 1, read-out: IC50 (nM) Rh41-807R): > 1000 nM; IC50 [3]: 90.2 ± 2.2 nM; IC50 ([2]; Rh41 parental cells, 72 h, 3H-thymidine incorporation, Table 1, read-out: IC50 (nM) Rh41): 31 nM

Q: With `CCN(CC)CCNC(=O)c1c(C)[nH]c(/C=C2\C(=O)Nc3ccc(F)cc32)c1C` [Sunitinib] as the compound, how does the IC50 [1, 8] read?
A: 1020 ± 321 nM

Q: And the IC50 [2, 9]?
A: 1400 ± 634 nM

Q: How did the IC50 [1, 5] turn out when `CO[C@H]1C[C@@H]2CC[C@@H](C)[C@@](O)(O2)C(=O)C(=O)N2CCCC[C@H]2C(=O)O[C@H]([C@H](C)C[C@@H]2CC[C@@H](O)[C@H](OC)C2)CC(=O)[C@H](C)/C=C(\C)[C@@H](O)[C@@H](OC)C(=O)[C@H](C)C[C@H](C)/C=C/C=C/C=C/1C` [Rapamycin] was run?
A: < 0.32 nM

Q: What about the IC50 [2, 7] of the same compound?
A: < 0.32 nM

Q: With “MAB391 (R&D Systems), IGF-1R neutralizing antibody” as the compound, how does the IC50 (nM), growth inhibition of Rh41-807R cells, 3H-thymidine incorporation, 72 h [4] read?
A: > 2000 nM

Q: And the IC50 (nM), growth inhibition of Rh41-MAB391R cells, 3H-thymidine incorporation, 72 h [4]?
A: > 2000 nM

Q: And the IC50 (nM), growth inhibition of Rh41 parental cells, 3H-thymidine incorporation, 72 h [4]?
A: 0.1 nM
